Test results: US7262212B2, “2,3-dihydro-6-nitroimidazo[2,1-b]oxazoles” (Otsuka Pharmaceutical Co., Ltd., priority 2002, dated 2007)

SMILES | melting point
C[C@]1(COC(=O)N2CC=C(c3ccc(C(F)(F)F)cc3)CC2)Cn2cc([N+](=O)[O-])nc2O1 | 169 to 171 °C
C[C@]1(COc2ccc(-n3cncn3)cc2)Cn2cc([N+](=O)[O-])nc2O1 | 236 to 238.7 °C
O=C(Nc1ccc(OC(F)(F)F)cc1)N1CCC2(CC1)Cn1cc([N+](=O)[O-])nc1O2 | 231 to 233 °C
CC(C)(C)OC(=O)N1CC=C(c2ccc(OC[C@@]3(C)Cn4cc([N+](=O)[O-])nc4O3)cc2)CC1 | 183 to 189 °C (dec.)
CC(C)(C)OC(=O)N1CCN(C(=O)c2ccc(OC[C@@]3(C)Cn4cc([N+](=O)[O-])nc4O3)cc2)CC1 | 222.5 to 224 °C
C[C@]1(CN2CCC(N3CCN(C(=O)c4ccc(Cl)cc4)CC3)CC2)Cn2cc([N+](=O)[O-])nc2O1 | 174 to 175 °C
CC(C)(C)OC(=O)N1CCN(c2cccc(OC[C@@]3(C)Cn4cc([N+](=O)[O-])nc4O3)c2)CC1 | 179.5 to 182 °C
CC(C)(C)OC(=O)N1CCN(c2ccc(OC[C@@]3(C)Cn4cc([N+](=O)[O-])nc4O3)cc2)CC1 | 230 to 232 °C
C[C@]1(COc2ccc(N3CCN(C(=O)OCc4ccc(Cl)cc4)CC3)cc2)Cn2cc([N+](=O)[O-])nc2O1 | 184.5 to 187.5 °C
C[C@]1(COc2ccc(C3CCN(C(=O)OCc4ccc(OC(F)(F)F)cc4)CC3)cc2)Cn2cc([N+](=O)[O-])nc2O1 | 202.5 to 204 °C
C[C@]1(COc2ccc(N3CCN(C(=O)c4ccc(OC(F)(F)F)cc4)CC3)cc2)Cn2cc([N+](=O)[O-])nc2O1 | 201.5 to 203.2 °C
CN(CCOc1ccc(OC(F)(F)F)cc1)CC1(C)Cn2cc([N+](=O)[O-])nc2O1 (stereo not drawn) | 86.4 to 89.2 °C
CN(CCOc1ccc(C(F)(F)F)cc1)C[C@@]1(C)Cn2cc([N+](=O)[O-])nc2O1 | 123 to 126 °C
CN(CCN(C)c1ccc(C(F)(F)F)cc1)C[C@@]1(C)Cn2cc([N+](=O)[O-])nc2O1 | 135.5 to 137.5 °C
CN(CCCOc1ccc(OC(F)(F)F)cc1)C[C@@]1(C)Cn2cc([N+](=O)[O-])nc2O1 | 92 to 95 °C
CCOC(=O)c1ccccc1NCC1(C)Cn2cc([N+](=O)[O-])nc2O1 (stereo not drawn) | 162.5 to 163.2 °C
CN(C[C@@]1(C)Cn2cc([N+](=O)[O-])nc2O1)c1ccccc1 | 147 to 148 °C
CN(CC1(C)Cn2cc([N+](=O)[O-])nc2O1)C(=O)OCc1ccccc1 (stereo not drawn) | 150.3 to 151.6 °C
O=C(NCC1Cn2cc([N+](=O)[O-])nc2O1)OCc1ccc(Cl)cc1 (stereo not drawn) | 182.6 to 182.9 °C
CNC(C1CCN(c2ccc(Cl)cc2)CC1)[C@]1(C)Cn2cc([N+](=O)[O-])nc2O1 (stereo partly drawn) | 179.2 to 182.1 °C
CN(C(=O)OCc1ccccc1)C1CCN(CC2(C)Cn3cc([N+](=O)[O-])nc3O2)CC1 (stereo not drawn) | 138.7 to 139.2 °C
CC1(CN2CCC(Cc3ccc(C(F)(F)F)cc3)CC2)Cn2cc([N+](=O)[O-])nc2O1 (stereo not drawn) | 125 to 126 °C
CC1(CN2CCC(C(=O)c3ccc(Cl)cc3)CC2)Cn2cc([N+](=O)[O-])nc2O1 (stereo not drawn) | 165 to 167 °C
C[C@]1(CN2CCC(c3ccc(C(F)(F)F)cc3)CC2)Cn2cc([N+](=O)[O-])nc2O1 | 138.7 to 139.9 °C
C[C@]1(CN2CCC(OCCc3ccc(Cl)cc3)CC2)Cn2cc([N+](=O)[O-])nc2O1 | 92.5 to 94 °C
CN(c1ccc(OC(F)(F)F)cc1)C1CCN(C[C@@]2(C)Cn3cc([N+](=O)[O-])nc3O2)CC1 | 133.2 to 134.4 °C

SMILES | melting point
C[C@]1(CN2CCC(NC(=O)OCc3ccc(OC(F)(F)F)cc3)CC2)Cn2cc([N+](=O)[O-])nc2O1 | 156.2 to 158.5 °C
C[C@]1(CN2CCC([S+]([O-])c3ccc(OC(F)(F)F)cc3)CC2)Cn2cc([N+](=O)[O-])nc2O1 (stereo partly drawn) | 107 to 109 °C
CC(C)COC(=O)N1CCN(CC2(C)Cn3cc([N+](=O)[O-])nc3O2)CC1 (stereo not drawn) | 176.5 to 177.3 °C
CC(C)(C)OC(=O)N1CCN(CCC2(C)Cn3cc([N+](=O)[O-])nc3O2)CC1 (stereo not drawn) | 190 to 191 °C (dec.)
CC1(CN2CCN(C(=O)COc3ccc(Cl)c(Cl)c3)CC2)Cn2cc([N+](=O)[O-])nc2O1 (stereo not drawn) | 209 to 211 °C
CC1(CCCN2CCN(C(=O)OCc3ccc(C(F)(F)F)cc3)CC2)Cn2cc([N+](=O)[O-])nc2O1 (stereo not drawn) | 130 to 133 °C
CC1(CN2CCN(C(=O)OCC#Cc3ccc(C(F)(F)F)cc3)CC2)Cn2cc([N+](=O)[O-])nc2O1.O=C(O)/C=C\C(=O)O (stereo not drawn) | 166 °C (dec.)
CSc1ccc(COC(=O)N2CCN(CC3(C)Cn4cc([N+](=O)[O-])nc4O3)CC2)cc1 (stereo not drawn) | 118 to 120 °C
C[S+]([O-])c1ccc(COC(=O)N2CCN(CC3(C)Cn4cc([N+](=O)[O-])nc4O3)CC2)cc1 (stereo not drawn) | 117 to 121 °C
CC1(CN2CCN(C(=O)OCc3ccc(C(=O)c4ccccc4)cc3)CC2)Cn2cc([N+](=O)[O-])nc2O1 (stereo not drawn) | 105 to 107 °C
CC1(CCN2CCN(c3nc4ccccc4o3)CC2)Cn2cc([N+](=O)[O-])nc2O1 (stereo not drawn) | 187.6 to 189.6 °C
O=[N+]([O-])c1cn2c(n1)O[C@H](CN1CCN(Cc3ccc(-c4ccccc4)cc3)CC1)C2 | 224 to 225 °C
C[C@@]1(CN2CCN(Cc3ccc(C(F)(F)F)cc3)CC2)Cn2cc([N+](=O)[O-])nc2O1 | 93 to 95 °C
C[C@]1(CN2CCN(C(=O)CSc3ccc(Cl)cc3)CC2)Cn2cc([N+](=O)[O-])nc2O1 | 142 to 145 °C
CC1(CN2CCN(C(=O)c3ccc(-c4ccccc4)cc3)CC2)Cn2cc([N+](=O)[O-])nc2O1 (stereo not drawn) | 116 to 118 °C
C[C@]1(CN2CCN(C(=O)c3ccc(C(F)(F)F)cc3)CC2)Cn2cc([N+](=O)[O-])nc2O1 | 183 to 184 °C
COc1ccc(C(=O)N2CCN(CC3(C)Cn4cc([N+](=O)[O-])nc4O3)CC2)cc1 (stereo not drawn) | 135 to 137 °C
C[C@]1(CN2CCN(C(=O)CCCc3ccc(C(F)(F)F)cc3)CC2)Cn2cc([N+](=O)[O-])nc2O1 | 145 to 146 °C
CC1(CN2CCN(S(=O)(=O)c3ccc(Cl)cc3)CC2)Cn2cc([N+](=O)[O-])nc2O1 (stereo not drawn) | 202 to 204 °C
CC1(CN2CCN(S(=O)(=O)Cc3ccc(Cl)cc3)CC2)Cn2cc([N+](=O)[O-])nc2O1 (stereo not drawn) | 215 to 217 °C
C[C@]1(CN2CCN(S(=O)(=O)CCc3ccc(Cl)cc3)CC2)Cn2cc([N+](=O)[O-])nc2O1 | 192 to 193 °C
C[C@]1(CN2CCN(C(=O)OCC=Cc3c(F)cc(F)cc3F)CC2)Cn2cc([N+](=O)[O-])nc2O1.O=C(O)/C=C\C(=O)O | 158 to 159 °C
CC1(CN2CCN(C(=O)NCc3ccc(C(F)(F)F)cc3)CC2)Cn2cc([N+](=O)[O-])nc2O1 (stereo not drawn) | 201 to 202.5 °C
CC1(CN2CCN(C(=O)Nc3ccc(C(F)(F)F)cc3)CC2)Cn2cc([N+](=O)[O-])nc2O1 (stereo not drawn) | 216 to 217 °C
CC1(CN2CCN(C(=O)Nc3ccc(Cl)cc3)CC2)Cn2cc([N+](=O)[O-])nc2O1 (stereo not drawn) | 185 to 188 °C (dec.)
C[C@]1(CN2CCN(C(=O)Nc3ccc(Cl)cc3)CC2)Cn2cc([N+](=O)[O-])nc2O1 | 156 to 159 °C (dec.)

SMILES | melting point
C[C@]1(CN2CCN(C(=O)N3CC=C(c4ccc(C(F)(F)F)cc4)CC3)CC2)Cn2cc([N+](=O)[O-])nc2O1 | 168.4 to 171.7 °C
CC1(CN2CCN(C(=O)N3CCC(c4ccc(Cl)cc4)CC3)CC2)Cn2cc([N+](=O)[O-])nc2O1 (stereo not drawn) | 186 to 187 °C
CC(=NN1CCN(C[C@@]2(C)Cn3cc([N+](=O)[O-])nc3O2)CC1)c1ccc(Cl)cc1 | 164.6 to 166.5 °C
CC(C)(C)OC(=O)CNC(=O)OCC1(C)Cn2cc([N+](=O)[O-])nc2O1 (stereo not drawn) | 104 to 106 °C
CC1(Cn2nc(-c3ccc(C(F)(F)F)cc3)oc2=O)Cn2cc([N+](=O)[O-])nc2O1 (stereo not drawn) | 230 to 231 °C
CC1(Cn2nc(-c3ccc(Cl)cc3)oc2=O)Cn2cc([N+](=O)[O-])nc2O1 (stereo not drawn) | 221 to 222 °C
CC1(Cn2nc(Cc3ccc(Cl)cc3)oc2=O)Cn2cc([N+](=O)[O-])nc2O1 (stereo not drawn) | 151 to 153 °C
O=c1oc(-c2ccc(OC(F)(F)F)cc2)nn1CC1Cn2cc([N+](=O)[O-])nc2O1 (stereo not drawn) | 204 to 207 °C
CC(C)(C)OC(=O)N1CCC(n2c(=O)n(CC3(C)Cn4cc([N+](=O)[O-])nc4O3)c3ccccc32)CC1 (stereo not drawn) | 218 to 219.1 °C
Cn1c(=O)n(CC2(C)Cn3cc([N+](=O)[O-])nc3O2)c2cc(C(F)(F)F)ccc21 (stereo not drawn) | 232.4 to 234.7 °C
CCn1c(=O)n(CC2(C)Cn3cc([N+](=O)[O-])nc3O2)c2cc(Cl)ccc21 (stereo not drawn) | 240.9 to 245.6 °C
CCCCCCn1c(=O)n(CC2(C)Cn3cc([N+](=O)[O-])nc3O2)c2cc(Cl)ccc21 (stereo not drawn) | 168.1 to 169.3 °C
CCOC(=O)c1ccc2c(c1)n(CC1(C)Cn3cc([N+](=O)[O-])nc3O1)c(=O)n2C (stereo not drawn) | 265.8 to 266.7 °C
CC1(Cn2c(=O)n(-c3ccc(F)cc3)c3ccccc32)Cn2cc([N+](=O)[O-])nc2O1 (stereo not drawn) | 254.1 to 254.7 °C
CC1(COC(=O)Nc2cccc(F)c2)Cn2cc([N+](=O)[O-])nc2O1 (stereo not drawn) | 168 to 169 °C
COc1ccc(CN2CCN(CC3(C)Cn4cc([N+](=O)[O-])nc4O3)C2=O)c(OC)c1 (stereo not drawn) | 175 to 175.4 °C
CC1(CN2C(=O)C(F)(F)c3ccccc32)Cn2cc([N+](=O)[O-])nc2O1 (stereo not drawn) | 202 to 206 °C
CC1(COC(=O)Nc2ccc(Cl)cc2)Cn2cc([N+](=O)[O-])nc2O1 (stereo not drawn) | 179 to 181 °C
CC1(CCc2nnnn2-c2ccccc2)Cn2cc([N+](=O)[O-])nc2O1 (stereo not drawn) | 158 to 159 °C
CC1(CN2C(=O)c3ccccc3C2=O)Cn2cc([N+](=O)[O-])nc2O1 (stereo not drawn) | 264.6 to 268.3 °C
CC1(CCN2CCN(c3ccccc3)C(=O)C2)Cn2cc([N+](=O)[O-])nc2O1 (stereo not drawn) | 199 to 202 °C (dec.)
CC1(CCCN2CCN(C(C)(C)C)C(=O)C2)Cn2cc([N+](=O)[O-])nc2O1 (stereo not drawn) | 147 to 149 °C (dec.)
CC1(CN2CCCN(Cc3ccc(-c4ccccc4)cc3)CC2)Cn2cc([N+](=O)[O-])nc2O1 (stereo not drawn) | 138 to 142.2 °C
CN1CCC2(CC1)Cn1cc([N+](=O)[O-])nc1O2 | 237 to 239 °C (dec.)
O=C(CN1CCN(c2nc3ccccc3o2)CC1)N1CCC2(CC1)Cn1cc([N+](=O)[O-])nc1O2 | 260 to 263 °C (dec.)
CN(C(=O)OC[C@@]1(C)Cn2cc([N+](=O)[O-])nc2O1)c1ccc(Cl)cc1 | 131 to 133 °C
